What was measured:
[1] = system: antibodies in sera from SARS patients (sera 1a, 1b, 2, 6, 37, 62, London, SARS-yellow, SARS-green); format: binding, human; set-up: Binding of serum 6 to linear peptides of protein X1 of SARS-CoV Urbani / Binding of serum 37 to linear peptides of protein X1 of SARS-CoV Urbani / Binding of serum 6 to looped/cyclic peptide (PEPSCAN-ELISA) / Binding of serum 37 to looped/cyclic peptide (PEPSCAN-ELISA) / Binding of serum 37 to looped/cyclic peptides of protein X1 of SARS-CoV Urbani / Binding of serum 6 to linear peptides of protein X2 / Binding of serum 37 to linear peptides of protein X2 / Binding of serum 37 to looped/cyclic peptides of protein X2 of SARS-CoV Urbani / Binding of serum 6 to linear peptides of protein M of SARS-CoV Urbani / Binding of serum 37 to linear peptides of protein M of SARS-CoV Urbani / Binding of serum 6 to looped/cyclic peptides of protein M of SARS-CoV Urbani / Binding of serum 37 to looped/cyclic peptides of protein M of SARS-CoV Urbani / Binding of serum 6 to linear peptides of protein X3 of SARS-CoV Urbani / Binding of serum 37 to linear peptides of protein X3 of SARS-CoV Urbani / Binding of serum 37 to looped/cyclic peptides of protein X3 of SARS-CoV Urbani / Binding of serum 6 to linear peptides of protein X4 of SARS-CoV Urbani / Binding of serum 37 to linear peptides of protein X4 of SARS-CoV Urbani / Binding of serum 37 to looped/cyclic peptides of protein X4 of SARS-CoV Urbani / Binding of serum 6 to linear peptides of protein X5 of SARS-CoV Urbani / Binding of serum 37 to linear peptides of protein X5 of SARS-CoV Urbani / Binding of serum 37 to looped/cyclic peptides of protein X5 of SARS-CoV Urbani / Binding of serum 6 to linear peptides of protein N of SARS-CoV Urbani / Binding of serum 37 to linear peptides of protein N of SARS-CoV Urbani / Binding of serum 6 to linear peptide (PEPSCAN-ELISA) / Binding of serum 1a to looped/cyclic peptides of protein N of SARS-CoV Urbani / Binding of serum 1b to looped/cyclic peptides of protein N of SARS-CoV Urbani / Binding of serum 2 to looped/cyclic peptides of protein N of SARS-CoV Urbani / Binding of serum 6 to looped/cyclic peptides of protein N of SARS-CoV Urbani / Binding of serum 37 to looped/cyclic peptides of protein N of SARS-CoV Urbani / Binding of serum 62 to looped/cyclic peptides of protein N of SARS-CoV Urbani / Binding of serum London to looped/cyclic peptides of protein N of SARS-CoV Urbani / Binding of serum SARS-green to looped/cyclic peptides of protein N of SARS-CoV Urbani: unit not given here
[2] = system: rabbit serum obtained by immunizing a rabbit with the SARS-CoV strain Frankfurt 1; format: binding; set-up: Binding of a rabbit serum to linear peptides / Binding of a rabbit serum to looped peptides / Rabbit serum linear peptides / Rabbit serum looped peptides / Binding of a rabbit serum to linear peptides of protein N of SARS-CoV Urbani (Rabbit serum linear peptides) / Binding of a rabbit serum to looped/cyclic peptides of protein N of SARS-CoV Urbani (Rabbit serum looped peptides): unit not given here
[3] = system: control sera (pooled serum of ten healthy LUMC hospital workers; commercial negative donor pooled serum from the Dutch bloodbank); format: binding, human; set-up: Binding of Control serum LUMC to linear peptides / Binding of Control serum Blood-bank to linear peptides / Binding of Control serum LUMC to looped peptides / Binding of Control Serum Blood-Bank to Looped peptides / Binding of Control serum LUMC to linear peptides of the protein M of SARS-CoV Urbani / Binding of Control serum Blood-bank to linear peptides of the protein M of SARS-CoV Urbani / Binding of Control serum LUMC to looped peptides of the protein M of SARS-CoV Urbani / Binding of Control Serum Blood-Bank to Looped peptides of the protein M of SARS-CoV Urbani: unit not given here

AFACADGTRHTYQLR
Binding of serum 1a to linear peptides of protein X4 of SARS-CoV Urbani [1]: 0.6
Binding of serum 1a to looped/cyclic peptides of protein X4 of SARS-CoV Urbani [1]: 0.6
Binding of serum 1b to linear peptides of protein X4 of SARS-CoV Urbani [1]: 0.4
Binding of serum 1b to looped/cyclic peptides of protein X4 of SARS-CoV Urbani [1]: 0.4
Binding of serum 2 to linear peptides of protein X4 of SARS-CoV Urbani [1]: 0.4
Binding of serum 2 to looped/cyclic peptides of protein X4 of SARS-CoV Urbani [1]: 0.8
Binding of serum 6 to linear peptides of protein X4 of SARS-CoV Urbani [1]: 0.5
Binding of serum 6 to looped/cyclic peptides of protein X4 of SARS-CoV Urbani [1]: 0.9
Binding of serum 37 to linear peptides of protein X4 of SARS-CoV Urbani [1]: 0.6
Binding of serum 37 to looped/cyclic peptides of protein X4 of SARS-CoV Urbani [1]: 0.6
Binding of serum 62 to linear peptides of protein X4 of SARS-CoV Urbani [1]: 0.7
Binding of serum 62 to looped/cyclic peptides of protein X4 of SARS-CoV Urbani [1]: 0.5
Binding of serum London to linear peptides of protein X4 of SARS-CoV Urbani [1]: 0.6
Binding of serum London to looped/cyclic peptides of protein X4 of SARS-CoV Urbani [1]: 0.4
Binding of serum SARS-green to linear peptides of protein X4 of SARS-CoV Urbani [1]: 0.4
Binding of serum SARS-green to looped/cyclic peptides of protein X4 of SARS-CoV Urbani [1]: 0.5
Binding of serum SARS-yellow to linear peptides of protein X4 of SARS-CoV Urbani [1]: 0.2
Binding of serum SARS-yellow to looped/cyclic peptides of protein X4 of SARS-CoV Urbani [1]: 0.4
Rabbit serum linear peptides [2]: 0.5
Rabbit serum looped peptides [2]: 0.1
Binding of Control Serum Blood-Bank to Looped peptides [3]: 0.7
Binding of Control serum Blood-bank to linear peptides [3]: 0.6
Binding of Control serum LUMC to linear peptides [3]: 0.5
Binding of Control serum LUMC to looped peptides [3]: 0.8

AGGALIARCWYLHEG
Binding of serum 1a to linear peptides of protein X5 of SARS-CoV Urbani [1]: 0.8
Binding of serum 1a to looped/cyclic peptides of protein X5 of SARS-CoV Urbani [1]: 0.7
Binding of serum 1b to linear peptides of protein X5 of SARS-CoV Urbani [1]: 0.7
Binding of serum 1b to looped/cyclic peptides of protein X5 of SARS-CoV Urbani [1]: 0.4
Binding of serum 2 to linear peptides of protein X5 of SARS-CoV Urbani [1]: 0.5
Binding of serum 2 to looped/cyclic peptides of protein X5 of SARS-CoV Urbani [1]: 0.5
Binding of serum 6 to linear peptides of protein X5 of SARS-CoV Urbani [1]: 0.7
Binding of serum 6 to looped/cyclic peptides of protein X5 of SARS-CoV Urbani [1]: 0.5
Binding of serum 37 to linear peptides of protein X5 of SARS-CoV Urbani [1]: 0.8
Binding of serum 37 to looped/cyclic peptides of protein X5 of SARS-CoV Urbani [1]: 0.6
Binding of serum 62 to linear peptides of protein X5 of SARS-CoV Urbani [1]: 0.9
Binding of serum 62 to looped/cyclic peptides of protein X5 of SARS-CoV Urbani [1]: 0.5
Binding of serum London to linear peptides of protein X5 of SARS-CoV Urbani [1]: 0.7
Binding of serum London to looped/cyclic peptides of protein X5 of SARS-CoV Urbani [1]: 0.2
Binding of serum SARS-green to linear peptides of protein X5 of SARS-CoV Urbani [1]: 0.7
Binding of serum SARS-green to looped/cyclic peptides of protein X5 of SARS-CoV Urbani [1]: 0.4
Binding of serum SARS-yellow to linear peptides of protein X5 of SARS-CoV Urbani [1]: 0.5
Binding of serum SARS-yellow to looped/cyclic peptides of protein X5 of SARS-CoV Urbani [1]: 0.4
Rabbit serum linear peptides [2]: 0.5
Rabbit serum looped peptides [2]: 0.4
Binding of Control Serum Blood-Bank to Looped peptides [3]: 0.7
Binding of Control serum Blood-bank to linear peptides [3]: 0.6
Binding of Control serum LUMC to linear peptides [3]: 0.5
Binding of Control serum LUMC to looped peptides [3]: 0.4

AISPKFTTSLSLHKL
Binding of serum 1a to linear peptides of protein X2 [1]: 0.6
Binding of serum 1a to looped/cyclic peptides of protein X2 of SARS-CoV Urbani [1]: 0.6
Binding of serum 1b to linear peptides of protein X2 [1]: 0.5
Binding of serum 1b to looped/cyclic peptides of protein X2 of SARS-CoV Urbani [1]: 0.6
Binding of serum 2 to linear peptides of protein X2 [1]: 0.5
Binding of serum 2 to looped/cyclic peptides of protein X2 of SARS-CoV Urbani [1]: 0.4
Binding of serum 6 to linear peptides of protein X2 [1]: 0.6
Binding of serum 6 to looped/cyclic peptides of protein X2 of SARS-CoV Urbani [1]: 0.8
Binding of serum 37 to linear peptides of protein X2 [1]: 0.6
Binding of serum 37 to looped/cyclic peptides of protein X2 of SARS-CoV Urbani [1]: 0.5
Binding of serum 62 to linear peptides of protein X2 [1]: 0.6
Binding of serum 62 to looped/cyclic peptides of protein X2 of SARS-CoV Urbani [1]: 0.7
Binding of serum London to linear peptides of protein X2 [1]: 0.5
Binding of serum London to looped/cyclic peptides of protein X2 of SARS-CoV Urbani [1]: 1.1
Binding of serum SARS-green to linear peptides of protein X2 [1]: 0.4
Binding of serum SARS-green to looped/cyclic peptides of protein X2 of SARS-CoV Urbani [1]: 0.3
Binding of serum SARS-yellow to linear peptides of protein X2 [1]: 0.5
Binding of serum SARS-yellow to looped/cyclic peptides of protein X2 of SARS-CoV Urbani [1]: 0.4
Binding of a rabbit serum to linear peptides [2]: 0.2
Binding of a rabbit serum to looped peptides [2]: 0.4
Binding of Control Serum Blood-Bank to Looped peptides [3]: 0.8
Binding of Control serum Blood-bank to linear peptides [3]: 0.8
Binding of Control serum LUMC to linear peptides [3]: 0.6
Binding of Control serum LUMC to looped peptides [3]: 0.6

From patent publication US20070128217A1 (priority 2003, published 2007)
